# In US8039219B2, “Method of using GPR35 to identify metabolic-stabilizing compounds” (Arena Pharmaceuticals, Inc., priority 2004, dated 2011):
# Experiments:
# [1] = tested on: mouse GPR35 expression in 3T3-L1 adipocytes; test: TaqMan analysis of mouse GPR35 expression in 3T3-L1 adipocytes after treatments; type: cell-based; conditions: 10 μM Linoleic Acid, 1 and 24 hours, serum free media; control untreated adipocytes at time 0; FIG. 8
# Method: GPR35 expression in 3T3-L1 adipocytes was then analyzed after certain treatments, such as treatment with linoleic acid. Briefly, 3T3-L1 cells were differentiated into adipocytes using a standardized protocol found in Patel Y M, Lane M D. (Role of calpain in adipocyte differentiation. Proc. Natl. Acad. Sci. USA 96:1279-1284, 1999). Cells were then treated for 1 and 24 hours in serum free media containing either 50 nM insulin (Sigma Cat # I-1882), 10 μM Linoleic Acid (Calbiochem Cat # 436305 lot #B52793), 50 pg/ml IL-1Beta (R&D Systems Cat # 401-ML lot #BN034012), 0.5 ng/mL TNF-alpha (R&D Systems Cat# 410-MT lot # CS083051). Control was untreated 3T3-L1 adipocytes at time 0. RNA was then isolated using Trizol method (Invitrogen Cat # 15596-018). cDNA was made using Biorad iScript cDNA Synthesis Kit.
# A 1× TaqMan supermix was made in a 5 mL polypropylene tube. Forward and Reverse primers were added to give a 300 nM final concentration; appropriate amount of probe was added to give a final concentration of 200 nM. Total volume per well was 20 μL. 2 μL was cDNA, while the other 18 μL was TaqMan supermix and nuclease-free water. The sequence for primers and the probe were: […]
# The thermo cycler conditions used were: (1) initial steps: hold for 2 minutes at 50° C., then hold for 10 minutes at 95° C. […]
# [2] = target: GPR35 (Homo sapiens, UniProt Q9HC97); conditions: reported by Wang et al., J. Biol. Chem. 281:22021-22028 (2006); cited from earlier work
# Chain of GPR35 (Q9HC97 whole entry, species assumed): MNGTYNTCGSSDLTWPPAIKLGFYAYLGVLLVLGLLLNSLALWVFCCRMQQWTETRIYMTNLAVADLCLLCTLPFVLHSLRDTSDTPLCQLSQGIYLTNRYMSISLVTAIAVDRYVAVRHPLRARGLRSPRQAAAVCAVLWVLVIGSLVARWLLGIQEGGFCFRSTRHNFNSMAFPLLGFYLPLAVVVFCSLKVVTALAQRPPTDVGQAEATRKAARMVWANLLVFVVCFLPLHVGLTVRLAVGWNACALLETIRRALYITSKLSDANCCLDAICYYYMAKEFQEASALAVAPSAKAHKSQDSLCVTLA
Structure (SMILES),GPR35 expression in 3T3-L1 adipocytes [1],ligand for GPR35 [2]
CCCCC/C=C\C/C=C\CCCCCCCC(=O)O [linoleic acid],significantly increased,–
O=C(O)c1cc(=O)c2ccccc2[nH]1 [kynurenic acid],–,ligand for GPR35
